Results as given in patent US20240049725A1, “CO[…] OTHER IN[…] AND USES THEREOF” (SYNGENTA CROP PROTECTION AG, priority 2020, published 2024).
Positions of bridges follow the written chain, without caps; N, C: chain ends. Residues, ends and D or L forms follow the SMILES beside them.

Assays:
[1] = test system: larvae of Helicoverpa armigera; conditions: Jennings et al, 2005; cited from earlier work
Plutella xylostella L1 = experiment: leaf disc spray test on Brassica chinensis, mortality of Plutella xylostella L1 larvae; format: in vivo; conditions: Abbott-corrected
Protocol: (§1) Brassica chinensis leaf discs with a 5 cm diameter were cut out and placed in a Petri dish which was prepared with 3 filter paper and 800 μl water. 100 μl of test solution was applied on the lower surface by spraying and dried to air. Next, the leaf was flipped and 100 μl of test solution was applied on the upper surface by spraying and dried to air. The leaf 3 was infested with 10 L1 larvae of Plutella xylostella, after which the dish was closed with a cotton filter and a plastic lid. The Petri dish was placed in a climate chamber at a temperature of 25° C., a relative humidity of 65% and with no artificial light cycle. Four days after infestation 150 μl water was added to the Petri dish. Three Petri dishes were assessed per treatment.

Plutella xylostella L3 = experiment: leaf disc spray test on Brassica chinensis, mortality of Plutella xylostella L3 larvae; format: in vivo; conditions: Abbott-corrected
Protocol: as §1, with “leaf” for “leaf 3”, “L3” for “L1”, “larvae (6-7 days old)” for “larvae”

Cydia pomonella L1 = experiment: artificial diet test in 24-well plate, mortality of Cydia pomonella L1 larvae; format: in vivo; conditions: 10000 ppm; Table E; Abbott-corrected
Protocol: An artificial diet was prepared. 1.5 ml of artificial diet was applied in a well of a 24-well plate followed by 50 μl of test solution by spraying. The well-plate was infested with 1 L1 larva of Cydia pomonella per well, after which the plate was closed with a carton filter and a metal lid. The 24-well plate was placed in a climate chamber at a temperature of 25° C., a relative humidity of 65% and with no artificial light cycle. Five wells (replicates) were assessed per treatment.

Spodoptera littoralis L1 = experiment: leaf disc spray test on Gossypium hirsutum, mortality of Spodoptera littoralis L1 larvae; format: in vivo; conditions: 10000 ppm, Abbott-corrected
Protocol: as §1, with “Gossypium hirsutum” for “Brassica chinensis”, “leaf” for “leaf 3”, “Spodoptera littoralis,” for “Plutella xylostella,”, “cycle. Two days after infestation 200 μl water was added to the Petri dish.” for “cycle.”, “500” for “150”

[2] = test system: crustaceans, cockroaches, blow fly larvae and Helicoverpa armigera; conditions: in vivo; cited from earlier work

CC[C@H](C)[C@@H]1NC(=O)[C@@H]2CCCN2C(=O)[C@H](Cc2c[nH]c3ccccc23)NC(=O)[C@H]([C@@H](C)O)NC(=O)[C@@H]2CSSC[C@@H]3NC(=O)[C@H]([C@@H](C)O)NC(=O)[C@H](CCC(=O)O)NC(=O)CNC(=O)[C@@H]4CSSC[C@H](NC(=O)CNC(=O)[C@@H]5CCCN5C(=O)[C@H]([C@@H](C)O)NC(=O)[C@H](CC(N)=O)NC(=O)[C@H](CSSC[C@H](NC1=O)C(=O)N[C@@H]([C@@H](C)O)C(=O)N[C@@H](CCCNC(=N)N)C(=O)N[C@@H](CC(=O)O)C(=O)NCC(=O)N[C@@H](CC(C)C)C(=O)N1CCC[C@H]1C(=O)N[C@@H](C(C)C)C(=O)N4)NC(=O)[C@H]([C@@H](C)O)NC(=O)CNC(=O)CNC(=O)[C@H](Cc1ccccc1)NC3=O)C(=O)N[C@@H](CO)C(=O)N2 [SEQ ID NO: 2 (kB2), Kalata B2] (cyclo(CFGGTCNTPGCSCTWPICTRDGLPVCGET); disulfide 1-13, 6-18, 11-26 (inferred); ring closure inferred)
insecticidal activity against the larvae of Helicoverpa armigera [1]: potent insecticidal activity | observed mortality of Plutella xylostella L1, 1 d after infestation (Plutella xylostella L1; 157 ppm, Table B2): 0% | observed mortality of Plutella xylostella L1, 2 d after infestation (Plutella xylostella L1; 157 ppm, Table B2): 0% | observed mortality of Plutella xylostella L1, 3 d after infestation (Plutella xylostella L1; 157 ppm, Table B2): 0% | observed mortality of Plutella xylostella L1, 4 d after infestation (Plutella xylostella L1; 157 ppm, Table B2): 0% | observed mortality of Plutella xylostella L1, 7 d after infestation (Plutella xylostella L1; 157 ppm, Table B2): 0% | observed mortality of Plutella xylostella L1, 1 d after infestation (Plutella xylostella L1; 625 ppm, Table C): 0% | observed mortality of Plutella xylostella L1, 2 d after infestation (Plutella xylostella L1; 625 ppm, Table C): 0% | observed mortality of Plutella xylostella L1, 3 d after infestation (Plutella xylostella L1; 625 ppm, Table C): 4% | observed mortality of Plutella xylostella L1, 4 d after infestation (Plutella xylostella L1; 625 ppm, Table C): 4% | observed mortality of Plutella xylostella L1, 6 d after infestation (Plutella xylostella L1; 625 ppm, Table C): 0%

CC(C)C[C@@H]1NC(=O)CNC(=O)[C@H](CC(N)=O)NC(=O)[C@H](CCCNC(=N)N)NC(=O)[C@H]([C@@H](C)O)NC(=O)[C@@H]2CSSC[C@@H]3NC(=O)[C@H]([C@@H](C)O)NC(=O)CNC(=O)CNC(=O)[C@H](C(C)C)NC(=O)[C@@H]4CSSC[C@H](NC(=O)[C@H]([C@@H](C)O)NC(=O)[C@H](CSSC[C@H](NC(=O)[C@H](C(C)C)NC(=O)[C@@H]5CCCN5C1=O)C(=O)NCC(=O)N[C@@H](CCC(=O)O)C(=O)N[C@@H]([C@@H](C)O)C(=O)N4)NC(=O)CNC(=O)[C@@H]1CCCN1C(=O)[C@H]([C@@H](C)O)NC(=O)[C@H](CC(N)=O)NC3=O)C(=O)N[C@@H](CO)C(=O)N[C@@H](Cc1c[nH]c3ccccc13)C(=O)N1CCC[C@H]1C(=O)N[C@@H](C(C)C)C(=O)N2 [SEQ ID NO: 1 (kB1), Kalata B1]
insecticidal activity against the larvae of Helicoverpa armigera [1]: potent insecticidal activity | observed mortality of Plutella xylostella L1, 1 d after infestation (Plutella xylostella L1; 625 ppm, Table B1): 0% | observed mortality of Plutella xylostella L1, 2 d after infestation (Plutella xylostella L1; 625 ppm, Table B1): 0% | observed mortality of Plutella xylostella L1, 3 d after infestation (Plutella xylostella L1; 625 ppm, Table B1): 3% | observed mortality of Plutella xylostella L1, 4 d after infestation (Plutella xylostella L1; 625 ppm, Table B1): 14% | observed mortality of Plutella xylostella L1, 7 d after infestation (Plutella xylostella L1; 625 ppm, Table B1): 17% | observed mortality of Plutella xylostella L1, 1 d after infestation (Plutella xylostella L1; 625 ppm, Table C): 0% | observed mortality of Plutella xylostella L1, 2 d after infestation (Plutella xylostella L1; 625 ppm, Table C): 11% | observed mortality of Plutella xylostella L1, 3 d after infestation (Plutella xylostella L1; 625 ppm, Table C): 9% | observed mortality of Plutella xylostella L1, 4 d after infestation (Plutella xylostella L1; 625 ppm, Table C): 22% | observed mortality of Plutella xylostella L1, 6 d after infestation (Plutella xylostella L1; 625 ppm, Table C): 20% | observed mortality of Plutella xylostella L3, 1 d after infestation (Plutella xylostella L3; 2500 ppm, Table D): 0% | observed mortality of Plutella xylostella L3, 2 d after infestation (Plutella xylostella L3; 2500 ppm, Table D): 0% | observed mortality of Plutella xylostella L3, 3 d after infestation (Plutella xylostella L3; 2500 ppm, Table D): 3% | observed mortality of Plutella xylostella L3, 4 d after infestation (Plutella xylostella L3; 2500 ppm, Table D): 20% | observed mortality of Plutella xylostella L3, 1 d after infestation (Plutella xylostella L3; 5000 ppm, Table D): 0% | observed mortality of Plutella xylostella L3, 2 d after infestation (Plutella xylostella L3; 5000 ppm, Table D): 0% | observed mortality of Plutella xylostella L3, 3 d after infestation (Plutella xylostella L3; 5000 ppm, Table D): 3% | observed mortality of Plutella xylostella L3, 4 d after infestation (Plutella xylostella L3; 5000 ppm, Table D): 37% | observed mortality of Plutella xylostella L3, 1 d after infestation (Plutella xylostella L3; 5000 ppm, Table F): 0% | observed mortality of Plutella xylostella L3, 2 d after infestation (Plutella xylostella L3; 5000 ppm, Table F): 0% | observed mortality of Plutella xylostella L3, 3 d after infestation (Plutella xylostella L3; 5000 ppm, Table F): 22% | observed mortality of Cydia pomonella L1, 1 d after infestation (Cydia pomonella L1): 20% | observed mortality of Cydia pomonella L1, 2 d after infestation (Cydia pomonella L1): 20% | observed mortality of Cydia pomonella L1, 3 d after infestation (Cydia pomonella L1): 20% | observed mortality of Cydia pomonella L1, 4 d after infestation (Cydia pomonella L1): 20% | observed mortality of Cydia pomonella L1, 7 d after infestation (Cydia pomonella L1): 20% | observed mortality of Spodoptera littoralis L1, 1 d after infestation (Spodoptera littoralis L1; Table A): 0% | observed mortality of Spodoptera littoralis L1, 2 d after infestation (Spodoptera littoralis L1; Table A): 35% | observed mortality of Spodoptera littoralis L1, 3 d after infestation (Spodoptera littoralis L1; Table A): 29% | observed mortality of Spodoptera littoralis L1, 6 d after infestation (Spodoptera littoralis L1; Table A): 32% | observed mortality of Spodoptera littoralis L1, 1 d after infestation (Spodoptera littoralis L1; Table G): 5% | observed mortality of Spodoptera littoralis L1, 2 d after infestation (Spodoptera littoralis L1; Table G): 25% | observed mortality of Spodoptera littoralis L1, 3 d after infestation (Spodoptera littoralis L1; Table G): 36%

CC(C)[C@H](NC(=O)[C@H](CCCCN)NC(=O)[C@@H]1CCCN1C(=O)CNC(=O)[C@H](CO)NC(=O)[C@@H]1CSSC[C@@H]2NC(=O)[C@@H]3CCCN3C(=O)[C@@H]3CSSC[C@H](NC(=O)CNC(=O)CNC(=O)[C@H](Cc4c[nH]c5ccccc45)NC(=O)[C@H](Cc4ccc(O)cc4)NC2=O)C(=O)N2CCC[C@H]2C(=O)N[C@@H](Cc2c[nH]c4ccccc24)C(=O)NCC(=O)N[C@@H](CCC(N)=O)C(=O)N[C@@H](CC(N)=O)C(=O)N[C@@H](CSSC[C@H](NC(=O)[C@H](CO)NC(=O)[C@@H](N)CCCNC(=N)N)C(=O)N3)C(=O)N[C@@H](Cc2ccc(O)cc2)C(=O)N2CCC[C@H]2C(=O)N[C@@H](CCC(=O)O)C(=O)NCC(=O)N1)C(=O)O [SEQ ID NO: 4 (Av3), Av3]
toxicity to crustaceans, cockroaches, blow fly larvae and Helicoverpa armigera [2]: toxic

CC(C)C[C@@H]1NC(=O)CNC(=O)[C@H](CC(N)=O)NC(=O)[C@H](CCCNC(=N)N)NC(=O)[C@H]([C@@H](C)O)NC(=O)[C@@H]2CSSC[C@@H]3NC(=O)[C@H]([C@@H](C)O)NC(=O)CNC(=O)CNC(=O)[C@H](C(C)C)NC(=O)[C@@H]4CSSC[C@H](NC(=O)[C@H]([C@@H](C)O)NC(=O)[C@H](CSSC[C@H](NC(=O)[C@H](C(C)C)NC(=O)[C@@H]5CCCN5C1=O)C(=O)NCC(=O)N[C@@H](CCC(=O)O)C(=O)N[C@@H]([C@@H](C)O)C(=O)N4)NC(=O)CNC(=O)[C@@H]1CCCN1C(=O)[C@H]([C@@H](C)O)NC(=O)[C@H](CC(N)=O)NC3=O)C(=O)N[C@@H](CO)C(=O)N[C@@H](Cc1c[nH]c3ccccc13)C(=O)N1CCC[C@H]1C(=O)N[C@@H](CCCCN)C(=O)N2 [SEQ ID NO: 6 (kB1[V25K]), Mutated kB1 (kB1[V25K])] (cyclo(CGETCVGGTCNTPGCTCSWPKCTRNGLPV); disulfide 1-15, 5-17, 10-22 (inferred); ring closure inferred)
observed mortality of Plutella xylostella L1, 1 d after infestation (Plutella xylostella L1; 625 ppm, Table C): 0% | observed mortality of Plutella xylostella L1, 2 d after infestation (Plutella xylostella L1; 625 ppm, Table C): 0% | observed mortality of Plutella xylostella L1, 3 d after infestation (Plutella xylostella L1; 625 ppm, Table C): 0% | observed mortality of Plutella xylostella L1, 4 d after infestation (Plutella xylostella L1; 625 ppm, Table C): 0% | observed mortality of Plutella xylostella L1, 6 d after infestation (Plutella xylostella L1; 625 ppm, Table C): 0%
